# Source: patent publication US20070128217A1 (priority 2003, published 2007)
# Assays:
# [1] = test system: antibodies in sera from SARS patients (sera 1a, 1b, 2, 6, 37, 62, London, SARS-yellow, SARS-green); type: binding, human; parameters: Binding of serum 6 to linear peptides of protein X1 of SARS-CoV Urbani / Binding of serum 37 to linear peptides of protein X1 of SARS-CoV Urbani / Binding of serum 6 to looped/cyclic peptide (PEPSCAN-ELISA) / Binding of serum 37 to looped/cyclic peptide (PEPSCAN-ELISA) / Binding of serum 37 to looped/cyclic peptides of protein X1 of SARS-CoV Urbani / Binding of serum 6 to linear peptides of protein X2 / Binding of serum 37 to linear peptides of protein X2 / Binding of serum 37 to looped/cyclic peptides of protein X2 of SARS-CoV Urbani / Binding of serum 6 to linear peptides of protein M of SARS-CoV Urbani / Binding of serum 37 to linear peptides of protein M of SARS-CoV Urbani / Binding of serum 6 to looped/cyclic peptides of protein M of SARS-CoV Urbani / Binding of serum 37 to looped/cyclic peptides of protein M of SARS-CoV Urbani / Binding of serum 6 to linear peptides of protein X3 of SARS-CoV Urbani / Binding of serum 37 to linear peptides of protein X3 of SARS-CoV Urbani / Binding of serum 37 to looped/cyclic peptides of protein X3 of SARS-CoV Urbani / Binding of serum 6 to linear peptides of protein X4 of SARS-CoV Urbani / Binding of serum 37 to linear peptides of protein X4 of SARS-CoV Urbani / Binding of serum 37 to looped/cyclic peptides of protein X4 of SARS-CoV Urbani / Binding of serum 6 to linear peptides of protein X5 of SARS-CoV Urbani / Binding of serum 37 to linear peptides of protein X5 of SARS-CoV Urbani / Binding of serum 37 to looped/cyclic peptides of protein X5 of SARS-CoV Urbani / Binding of serum 6 to linear peptides of protein N of SARS-CoV Urbani / Binding of serum 37 to linear peptides of protein N of SARS-CoV Urbani / Binding of serum 6 to linear peptide (PEPSCAN-ELISA) / Binding of serum 1a to looped/cyclic peptides of protein N of SARS-CoV Urbani / Binding of serum 1b to looped/cyclic peptides of protein N of SARS-CoV Urbani / Binding of serum 2 to looped/cyclic peptides of protein N of SARS-CoV Urbani / Binding of serum 6 to looped/cyclic peptides of protein N of SARS-CoV Urbani / Binding of serum 37 to looped/cyclic peptides of protein N of SARS-CoV Urbani / Binding of serum 62 to looped/cyclic peptides of protein N of SARS-CoV Urbani / Binding of serum London to looped/cyclic peptides of protein N of SARS-CoV Urbani / Binding of serum SARS-green to looped/cyclic peptides of protein N of SARS-CoV Urbani: unit not given here
# [2] = test system: control sera (pooled serum of ten healthy LUMC hospital workers; commercial negative donor pooled serum from the Dutch bloodbank); type: binding, human; parameters: Binding of Control serum LUMC to linear peptides / Binding of Control serum Blood-bank to linear peptides / Binding of Control serum LUMC to looped peptides / Binding of Control Serum Blood-Bank to Looped peptides / Binding of Control serum LUMC to linear peptides of the protein M of SARS-CoV Urbani / Binding of Control serum Blood-bank to linear peptides of the protein M of SARS-CoV Urbani / Binding of Control serum LUMC to looped peptides of the protein M of SARS-CoV Urbani / Binding of Control Serum Blood-Bank to Looped peptides of the protein M of SARS-CoV Urbani: unit not given here
# [3] = test system: rabbit serum obtained by immunizing a rabbit with the SARS-CoV strain Frankfurt 1; type: binding; parameters: Binding of a rabbit serum to linear peptides / Binding of a rabbit serum to looped peptides / Rabbit serum linear peptides / Rabbit serum looped peptides / Binding of a rabbit serum to linear peptides of protein N of SARS-CoV Urbani (Rabbit serum linear peptides) / Binding of a rabbit serum to looped/cyclic peptides of protein N of SARS-CoV Urbani (Rabbit serum looped peptides): unit not given here
sequence,measurement,setting,value
IVGLMWLSYFVASFR,Binding of serum 1a to linear peptides of protein M of SARS-CoV Urbani,[1],0.6
same,Binding of serum 1a to looped/cyclic peptides of protein M of SARS-CoV Urbani,[1],0.7
same,Binding of serum 1b to linear peptides of protein M of SARS-CoV Urbani,[1],0.4
same,Binding of serum 1b to looped/cyclic peptides of protein M of SARS-CoV Urbani,[1],0.5
same,Binding of serum 2 to linear peptides of protein M of SARS-CoV Urbani,[1],0.5
same,Binding of serum 2 to looped/cyclic peptides of protein M of SARS-CoV Urbani,[1],1.0
same,Binding of serum 6 to linear peptides of protein M of SARS-CoV Urbani,[1],0.3
same,Binding of serum 6 to looped/cyclic peptides of protein M of SARS-CoV Urbani,[1],0.7
same,Binding of serum 37 to linear peptides of protein M of SARS-CoV Urbani,[1],0.5
same,Binding of serum 37 to looped/cyclic peptides of protein M of SARS-CoV Urbani,[1],0.7
same,Binding of serum 62 to linear peptides of protein M of SARS-CoV Urbani,[1],0.7
same,Binding of serum 62 to looped/cyclic peptides of protein M of SARS-CoV Urbani,[1],0.7
same,Binding of serum London to linear peptides of protein M of SARS-CoV Urbani,[1],0.3
same,Binding of serum London to looped/cyclic peptides of protein M of SARS-CoV Urbani,[1],0.2
same,Binding of serum SARS-green to linear peptides of protein M of SARS-CoV Urbani,[1],0.2
same,Binding of serum SARS-green to looped/cyclic peptides of protein M of SARS-CoV Urbani,[1],0.1
same,Binding of serum SARS-yellow to linear peptides of protein M of SARS-CoV Urbani,[1],0.1
same,Binding of serum SARS-yellow to looped/cyclic peptides of protein M of SARS-CoV Urbani,[1],0.6
same,Binding of Control Serum Blood-Bank to Looped peptides of the protein M of SARS-CoV Urbani,[2],0.7
same,Binding of Control serum Blood-bank to linear peptides of the protein M of SARS-CoV Urbani,[2],0.5
same,Binding of Control serum LUMC to linear peptides of the protein M of SARS-CoV Urbani,[2],0.2
same,Binding of Control serum LUMC to looped peptides of the protein M of SARS-CoV Urbani,[2],0.6
same,Rabbit serum linear peptides,[3],0.3
same,Rabbit serum looped peptides,[3],0.5
IWNLDVIISSIVRQL,Binding of serum 1a to linear peptides of protein X3 of SARS-CoV Urbani,[1],0.7
same,Binding of serum 1a to looped/cyclic peptides of protein X3 of SARS-CoV Urbani,[1],0.5
same,Binding of serum 1b to linear peptides of protein X3 of SARS-CoV Urbani,[1],0.3
same,Binding of serum 1b to looped/cyclic peptides of protein X3 of SARS-CoV Urbani,[1],0.4
same,Binding of serum 2 to linear peptides of protein X3 of SARS-CoV Urbani,[1],0.5
same,Binding of serum 2 to looped/cyclic peptides of protein X3 of SARS-CoV Urbani,[1],0.5
same,Binding of serum 6 to linear peptides of protein X3 of SARS-CoV Urbani,[1],0.5
same,Binding of serum 6 to looped/cyclic peptides of protein X3 of SARS-CoV Urbani,[1],0.6
same,Binding of serum 37 to linear peptides of protein X3 of SARS-CoV Urbani,[1],0.6
same,Binding of serum 37 to looped/cyclic peptides of protein X3 of SARS-CoV Urbani,[1],0.5
same,Binding of serum 62 to linear peptides of protein X3 of SARS-CoV Urbani,[1],0.6
same,Binding of serum 62 to looped/cyclic peptides of protein X3 of SARS-CoV Urbani,[1],0.4
same,Binding of serum London to linear peptides of protein X3 of SARS-CoV Urbani,[1],0.6
same,Binding of serum London to looped/cyclic peptides of protein X3 of SARS-CoV Urbani,[1],0.2
same,Binding of serum SARS-green to linear peptides of protein X3 of SARS-CoV Urbani,[1],0.4
same,Binding of serum SARS-green to looped/cyclic peptides of protein X3 of SARS-CoV Urbani,[1],0.3
same,Binding of serum SARS-yellow to linear peptides of protein X3 of SARS-CoV Urbani,[1],0.2
same,Binding of serum SARS-yellow to looped/cyclic peptides of protein X3 of SARS-CoV Urbani,[1],0.6
same,Binding of Control Serum Blood-Bank to Looped peptides of the protein X3 of SARS-CoV Urbani,[2],0.7
same,Binding of Control serum Blood-bank to linear peptides of the protein X3 of SARS-CoV Urbani,[2],0.6
same,Binding of Control serum LUMC to linear peptides of the protein X3 of SARS-CoV Urbani,[2],0.5
same,Binding of Control serum LUMC to looped peptides of the protein X3 of SARS-CoV Urbani,[2],0.7
same,Rabbit serum linear peptides,[3],0.2
same,Rabbit serum looped peptides,[3],0.4
IYSHLLLVAAGMEAQ,Binding of serum 1a to linear peptides of protein X1 of SARS-CoV Urbani,[1],0.6
same,Binding of serum 1a to looped/cyclic peptide (PEPSCAN-ELISA),[1],0.5
same,Binding of serum 1b to linear peptides of protein X1 of SARS-CoV Urbani,[1],0.5
same,Binding of serum 1b to looped/cyclic peptide (PEPSCAN-ELISA),[1],0.4
same,Binding of serum 2 to linear peptides of protein X1 of SARS-CoV Urbani,[1],0.5
same,Binding of serum 2 to looped/cyclic peptide (PEPSCAN-ELISA),[1],0.3
same,Binding of serum 6 to linear peptides of protein X1 of SARS-CoV Urbani,[1],0.4
same,Binding of serum 6 to looped/cyclic peptide (PEPSCAN-ELISA),[1],0.3
same,Binding of serum 37 to linear peptides of protein X1 of SARS-CoV Urbani,[1],0.6
same,Binding of serum 37 to looped/cyclic peptide (PEPSCAN-ELISA),[1],0.5
same,Binding of serum 62 to linear peptides of protein X1 of SARS-CoV Urbani,[1],0.6
same,Binding of serum 62 to looped/cyclic peptide (PEPSCAN-ELISA),[1],0.5
same,Binding of serum London to linear peptides of protein X1 of SARS-CoV Urbani,[1],0.3
same,Binding of serum London to looped/cyclic peptide (PEPSCAN-ELISA),[1],0.2
same,Binding of serum SARS-green to linear peptides of protein X1 of SARS-CoV Urbani,[1],0.2
same,Binding of serum SARS-green to looped/cyclic peptide (PEPSCAN-ELISA),[1],0.2
same,Binding of serum SARS-yellow to linear peptides of protein X1 of SARS-CoV Urbani,[1],0.3
same,Binding of serum SARS-yellow to looped/cyclic peptide (PEPSCAN-ELISA),[1],0.2
same,Binding of Control Serum Blood-Bank to Looped peptides,[2],0.4
same,Binding of Control serum Blood-bank to linear peptides,[2],0.5
same,Binding of Control serum LUMC to linear peptides,[2],0.5
same,Binding of Control serum LUMC to looped peptides,[2],0.5
same,Binding of a rabbit serum to linear peptides,[3],0.1
same,Binding of a rabbit serum to looped peptides,[3],0.4
KCKSKNPLLYDANYF,Binding of serum 1a to linear peptides of protein X1 of SARS-CoV Urbani,[1],0.7
same,Binding of serum 1a to looped/cyclic peptide (PEPSCAN-ELISA),[1],0.7
same,Binding of serum 1b to linear peptides of protein X1 of SARS-CoV Urbani,[1],0.4
same,Binding of serum 1b to looped/cyclic peptide (PEPSCAN-ELISA),[1],0.5
same,Binding of serum 2 to linear peptides of protein X1 of SARS-CoV Urbani,[1],0.5
same,Binding of serum 2 to looped/cyclic peptide (PEPSCAN-ELISA),[1],0.4
same,Binding of serum 6 to linear peptides of protein X1 of SARS-CoV Urbani,[1],0.5
same,Binding of serum 6 to looped/cyclic peptide (PEPSCAN-ELISA),[1],0.4
same,Binding of serum 37 to linear peptides of protein X1 of SARS-CoV Urbani,[1],0.6
same,Binding of serum 37 to looped/cyclic peptide (PEPSCAN-ELISA),[1],0.8
same,Binding of serum 62 to linear peptides of protein X1 of SARS-CoV Urbani,[1],0.5
same,Binding of serum 62 to looped/cyclic peptide (PEPSCAN-ELISA),[1],0.7
same,Binding of serum London to linear peptides of protein X1 of SARS-CoV Urbani,[1],0.2
same,Binding of serum London to looped/cyclic peptide (PEPSCAN-ELISA),[1],0.3
same,Binding of serum SARS-green to linear peptides of protein X1 of SARS-CoV Urbani,[1],0.2
same,Binding of serum SARS-green to looped/cyclic peptide (PEPSCAN-ELISA),[1],0.3
same,Binding of serum SARS-yellow to linear peptides of protein X1 of SARS-CoV Urbani,[1],0.4
same,Binding of serum SARS-yellow to looped/cyclic peptide (PEPSCAN-ELISA),[1],0.5
same,Binding of Control Serum Blood-Bank to Looped peptides,[2],0.7
same,Binding of Control serum Blood-bank to linear peptides,[2],0.6
same,Binding of Control serum LUMC to linear peptides,[2],0.5
same,Binding of Control serum LUMC to looped peptides,[2],0.7
same,Binding of a rabbit serum to linear peptides,[3],0.2
same,Binding of a rabbit serum to looped peptides,[3],0.6
